From BindingDB's records for doi:10.1016/s0028-3908(00)00035-6 (University of Cambridge, 2000)
Values joined by “and” are separate entries in the source; they are usually repeats but may differ in a detail not shown here. Equal values may be shown once.

Legend:
[1] = target: Somatostatin receptor type 2 (Homo sapiens, UniProt P30874)
[2] = target: Somatostatin receptor type 5 (Homo sapiens, UniProt P35346)
[3] = target: Somatostatin receptor type 2 (Rattus norvegicus, UniProt P30680)
[4] = target: Somatostatin receptor type 3 (Homo sapiens, UniProt P32745)
[5] = target: Somatostatin receptor type 4 (Homo sapiens, UniProt P31391)
Sequence of Somatostatin receptor type 4 (P31391 whole entry): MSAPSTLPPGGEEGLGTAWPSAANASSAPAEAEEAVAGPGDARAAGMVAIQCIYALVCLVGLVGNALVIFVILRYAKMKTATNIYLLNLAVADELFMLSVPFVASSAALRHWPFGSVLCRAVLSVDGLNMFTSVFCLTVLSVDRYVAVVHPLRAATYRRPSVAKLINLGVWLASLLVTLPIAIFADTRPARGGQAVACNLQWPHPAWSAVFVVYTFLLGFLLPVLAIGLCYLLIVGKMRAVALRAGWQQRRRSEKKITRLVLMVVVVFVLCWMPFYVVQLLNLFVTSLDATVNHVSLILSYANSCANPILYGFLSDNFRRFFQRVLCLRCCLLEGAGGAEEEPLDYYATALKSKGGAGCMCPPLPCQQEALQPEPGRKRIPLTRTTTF

Sequence of Somatostatin receptor type 2 (Rattus norvegicus, UniProt P30680) (P30680 whole entry): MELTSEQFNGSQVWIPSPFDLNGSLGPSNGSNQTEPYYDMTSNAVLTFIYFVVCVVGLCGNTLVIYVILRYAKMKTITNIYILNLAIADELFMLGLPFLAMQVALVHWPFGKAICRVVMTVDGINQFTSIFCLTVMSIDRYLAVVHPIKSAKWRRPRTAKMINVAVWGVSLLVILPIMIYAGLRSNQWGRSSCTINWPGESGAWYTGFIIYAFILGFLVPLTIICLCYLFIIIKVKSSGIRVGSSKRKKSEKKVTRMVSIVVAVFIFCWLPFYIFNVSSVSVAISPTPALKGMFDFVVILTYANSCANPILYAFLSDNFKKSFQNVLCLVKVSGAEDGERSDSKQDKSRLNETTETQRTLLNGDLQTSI
Sequence of Somatostatin receptor type 5 (P35346 whole entry): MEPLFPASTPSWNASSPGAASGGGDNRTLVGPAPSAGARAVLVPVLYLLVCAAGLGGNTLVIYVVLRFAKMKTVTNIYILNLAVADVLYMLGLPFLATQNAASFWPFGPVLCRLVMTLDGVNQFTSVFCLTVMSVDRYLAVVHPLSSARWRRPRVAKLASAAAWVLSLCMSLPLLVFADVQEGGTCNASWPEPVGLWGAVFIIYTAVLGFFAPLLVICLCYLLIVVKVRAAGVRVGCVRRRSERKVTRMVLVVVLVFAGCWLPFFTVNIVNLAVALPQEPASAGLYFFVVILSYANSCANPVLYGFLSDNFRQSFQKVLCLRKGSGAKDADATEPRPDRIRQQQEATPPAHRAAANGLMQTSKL
Sequence of Somatostatin receptor type 2 (Homo sapiens, UniProt P30874) (P30874 whole entry): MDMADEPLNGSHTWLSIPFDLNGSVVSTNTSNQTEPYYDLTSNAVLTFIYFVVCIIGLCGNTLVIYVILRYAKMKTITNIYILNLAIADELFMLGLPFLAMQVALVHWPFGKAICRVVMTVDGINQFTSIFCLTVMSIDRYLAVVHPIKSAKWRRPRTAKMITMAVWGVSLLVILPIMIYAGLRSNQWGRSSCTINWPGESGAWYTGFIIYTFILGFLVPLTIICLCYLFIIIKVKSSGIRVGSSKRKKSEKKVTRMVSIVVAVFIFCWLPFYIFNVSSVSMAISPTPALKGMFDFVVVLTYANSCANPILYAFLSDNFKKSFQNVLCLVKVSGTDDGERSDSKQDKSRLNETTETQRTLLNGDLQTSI
Sequence of Somatostatin receptor type 3 (P32745 whole entry): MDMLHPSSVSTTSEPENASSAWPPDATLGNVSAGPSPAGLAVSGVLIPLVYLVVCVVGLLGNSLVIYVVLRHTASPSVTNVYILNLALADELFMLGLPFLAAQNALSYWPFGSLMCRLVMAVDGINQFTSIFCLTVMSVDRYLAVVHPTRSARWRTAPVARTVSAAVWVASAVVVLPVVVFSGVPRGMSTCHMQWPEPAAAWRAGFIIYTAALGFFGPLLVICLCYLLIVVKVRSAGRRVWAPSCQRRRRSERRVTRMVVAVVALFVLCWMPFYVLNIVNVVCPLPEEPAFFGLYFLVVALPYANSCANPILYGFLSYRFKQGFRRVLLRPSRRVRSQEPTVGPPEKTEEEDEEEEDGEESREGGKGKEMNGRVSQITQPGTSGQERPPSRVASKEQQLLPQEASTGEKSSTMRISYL

Compound: CC(=O)N[C@@H](Cc1ccc([N+](=O)[O-])cc1)C(=O)N[C@@H]1CSSC[C@@H](C(=O)N[C@H](Cc2ccc(O)cc2)C(N)=O)NC(=O)[C@H]([C@@H](C)O)NC(=O)[C@H](CCCCN)NC(=O)[C@@H](Cc2c[nH]c3ccccc23)NC(=O)[C@H](Cc2ccc(O)cc2)NC1=O [CAS_183658-72-2]
- Ki [1]: 2.63 nM
- Ki [2]: 331 nM
- Ki [3]: 7.94 nM and 4.47 nM
- Ki [4]: 851 nM
- Ki [5]: 1740 nM
